Like-named read-outs stand apart in the source and are kept apart here.
Tested on: HBV
Test: HBV inhibition assay in HepAD38 cells (extracellular HBV DNA by direct qPCR)
Type: cell-based, Hepatitis B virus
Settings: 96 hours; for EC50: 8-point dose-response curve, read-out: HBV inh EC50; for inhibition at 0.1 µM / inhibition at 0.05 µM: relative to non-treated reference, read-out: Anti HBV Activity (conc μM)

SMILES	EC50 (Hepatitis B virus)	inhibition at 0.1 µM (Hepatitis B virus)	also measured
Cc1cc(NC(=O)c2c3c(cn2C)S(=O)(=O)NC2CN(C(=O)OC(C)(C)C)CC2CO3)ccc1F (stereo not drawn) [Example E145, Trans-Tert-Butyl 8-((4-fluoro-3-methylphenyl)carbamoyl)-7-methyl-3a,4,10,10a-tetrahydro-1H,7H-dipyrrolo[3,4-b:3′,4′-f][1,4,5]oxathiazocine-2(3H)-carboxylate 5,5-dioxide]	< 1000 nM	–	–
CCOC(=O)N1CC2COc3c(cn(C)c3C(=O)Nc3ccc(F)c(C)c3)S(=O)(=O)NC2C1 (racemic) [Example E14, Cis-Ethyl 8-((4-fluoro-3-methylphenyl)carbamoyl)-7-methyl-3a,4,10,10a-tetrahydro-1H,7H-dipyrrolo[3,4-b:3′,4′-f][1,4,5]oxathiazocine-2(3H)-carboxylate 5,5-dioxide]	< 1000 nM	> 50%	–
Cn1cc2c(c1C(=O)Nc1cc(F)c(F)c(F)c1)OC1COCC1NS2(=O)=O (racemic) [Example E7, trans-7-methyl-N-(3,4,5-trifluorophenyl)-1,3a,4,9a-tetrahydro-3H,7H-furo[3,4-f]pyrrolo[3,4-b][1,4,5]oxathiazepine-8-carboxamide 5,5-dioxide]	< 1000 nM	–	–
CCOC(=O)N1CC[C@H]2NS(=O)(=O)c3cn(C)c(C(=O)Nc4ccc(F)c(F)c4)c3OC[C@H]21 [Example E27, Ethyl (3aR,10aS)-8-((3,4-difluorophenyl)carbamoyl)-7-methyl-2,3,3a,4,10,10a-hexahydro-1H,7H-dipyrrolo[3,4-b:3′,2′-f][1,4,5]oxathiazocine-1-carboxylate 5,5-dioxide]	–	< 50%	–
C[C@H](N)C(=O)N1C[C@@H]2COc3c(cn(C)c3C(=O)Nc3cc(F)c(F)c(F)c3)S(=O)(=O)N[C@@H]2C1 (mixture of isomers) [Example E67, cis-2-(L-alanyl)-7-methyl-N-(3,4,5-trifluorophenyl)-2,3,3a,4,10,10a-hexahydro-1H,7H-dipyrrolo[3,4-b:3′,4′-f][1,4,5]oxathiazocine-8-carboxamide 5,5-dioxide]	–	< 50%	–
Cn1cc2c(c1C(=O)Nc1cc(F)c(F)c(F)c1)OCC1CN(C(=O)CO)CC1NS2(=O)=O (stereo not drawn) [Example E71, cis-2-(2-hydroxyacetyl)-7-methyl-N-(3,4,5-trifluorophenyl)-2,3,3a,4,10,10a-hexahydro-1H,7H-dipyrrolo[3,4-b:3′,4′-f][1,4,5]oxathiazocine-8-carboxamide 5,5-dioxide]	–	< 50%	–
Cn1cc2c(c1C(=O)Nc1cc(F)c(F)c(F)c1)OC[C@H]1CN(C(=O)c3ncco3)C[C@H]1NS2(=O)=O (relative stereo) [Example E50, cis-7-methyl-2-(oxazole-2-carbonyl)-N-(3,4,5-trifluorophenyl)-2,3,3a,4,10,10a-hexahydro-1H,7H-dipyrrolo[3,4-b:3′,4′-f][1,4,5]oxathiazocine-8-carboxamide 5,5-dioxide]	< 1000 nM	–	inhibition at 0.05 µM (Hepatitis B virus): > 50%
Cc1cc(NC(=O)c2c3c(cn2C)S(=O)(=O)NC2CN(C(=O)C4(C)COC4)CC2(C)CO3)ccc1F (stereo not drawn) [Example E89, cis-N-(4-fluoro-3-methylphenyl)-7,10a-dimethyl-2-(3-methyloxetane-3-carbonyl)-2,3,3a,4,10,10a-hexahydro-1H,7H-dipyrrolo[3,4-b:3′,4′-f][1,4,5]oxathiazocine-8-carboxamide 5,5-dioxide]	< 1000 nM	–	–
Cc1cc(NC(=O)c2c3c(cn2C)S(=O)(=O)N[C@H]2CN(C(=O)[C@H]4CCCO4)C[C@H]2CO3)ccc1F [Example E100, (3aR,10aR)—N-(4-fluoro-3-methylphenyl)-7-methyl-2-((R)-tetrahydrofuran-2-carbonyl)-2,3,3a,4,10,10a-hexahydro-1H,7H-dipyrrolo[3,4-b:3′,4′-f][1,4,5]oxathiazocine-8-carboxamide 5,5-dioxide]	< 1000 nM	–	–
Cn1cc2c(c1C(=O)Nc1ccc(F)c(F)c1)OC[C@H]1NCC[C@H]1NS2(=O)=O (single isomer, unassigned) [Example E25]	–	< 50%	–
Cc1cc(NC(=O)c2c3c(cn2C)S(=O)(=O)NC2CN(C(=O)C4(C)COC4)CC2CO3)ccc1F (stereo not drawn) [Example E66, cis-N-(4-fluoro-3-methylphenyl)-7-methyl-2-(3-methyloxetane-3-carbonyl)-2,3,3a,4,10,10a-hexahydro-1H,7H-dipyrrolo[3,4-b:3′,4′-f][1,4,5]oxathiazocine-8-carboxamide 5,5-dioxide]	< 1000 nM	–	–
Cc1cc(NC(=O)c2c3c(cn2C)S(=O)(=O)NC2CN(C(=O)c4nonc4N)CC2CO3)ccc1F (stereo not drawn) [Example E61, cis-2-(4-amino-1,2,5-oxadiazole-3-carbonyl)-N-(4-fluoro-3-methylphenyl)-7-methyl-2,3,3a,4,10,10a-hexahydro-1H,7H-dipyrrolo[3,4-b:3′,4′-f][1,4,5]oxathiazocine-8-carboxamide 5,5-dioxide]	< 1000 nM	–	–
Cc1cc(NC(=O)c2c3c(cn2C)S(=O)(=O)N[C@H]2CN(C(=O)c4ncoc4C)C[C@H]2CO3)ccc1F [Example E113, (3aR,10aR)—N-(4-fluoro-3-methylphenyl)-7-methyl-2-(5-methyloxazole-4-carbonyl)-2,3,3a,4,10,10a-hexahydro-1H,7H-dipyrrolo[3,4-b:3′,4′-f][1,4,5]oxathiazocine-8-carboxamide 5,5-dioxide]	< 1000 nM	–	–
Cn1cc2c(c1C(=O)Nc1cc(F)c(F)c(F)c1)OCC1CN(C(=O)c3nccs3)CC1NS2(=O)=O (stereo not drawn) [Example E58, cis-7-methyl-2-(thiazole-2-carbonyl)-N-(3,4,5-trifluorophenyl)-2,3,3a,4,10,10a-hexahydro-1H,7H-dipyrrolo[3,4-b:3′,4′-f][1,4,5]oxathiazocine-8-carboxamide 5,5-dioxide]	< 1000 nM	–	inhibition at 0.05 µM (Hepatitis B virus): > 50%
Cc1cc(NC(=O)c2c3c(cn2C)S(=O)(=O)NC2CCN(C(=O)C45CC(CO4)C5)CC2CO3)ccc1F (racemic) [Example E133, Trans-8-(2-oxabicyclo[2.1.1]hexane-1-carbonyl)-N-(4-fluoro-3-methylphenyl)-2-methyl-5,5a,6,7,8,9,9a,10-octahydro-2H-pyrido[4,3-f]pyrrolo[3,4-b][1,4,5]oxathiazocine-1-carboxamide 4,4-dioxide]	–	–	EC50: < 1000 nM
CCOC(=O)N1CC2COc3c(cn(C)c3C(=O)Nc3ccc(F)c(C#N)c3)S(=O)(=O)NC2C1 (racemic) [Example E17, Cis-Ethyl 8-((3-cyano-4-fluorophenyl)carbamoyl)-7-methyl-3a,4,10,10a-tetrahydro-1H,7H-dipyrrolo[3,4-b:3′,4′-f][1,4,5]oxathiazocine-2(3H)-carboxylate 5,5-dioxide]	< 1000 nM	> 50%	–
Cc1noc(N2C[C@H]3COc4c(cn(C)c4C(=O)Nc4ccc(F)c(C)c4)S(=O)(=O)N[C@H]3C2)n1 [Example E115, (3aR,10aR)—N-(4-fluoro-3-methylphenyl)-7-methyl-2-(3-methyl-1,2,4-oxadiazol-5-yl)-2,3,3a,4,10,10a-hexahydro-1H,7H-dipyrrolo[3,4-b:3′,4′-f][1,4,5]oxathiazocine-8-carboxamide 5,5-dioxide]	< 1000 nM	–	–
CC(C)NS(=O)(=O)N1CC2COc3c(cn(C)c3C(=O)Nc3cc(F)c(F)c(F)c3)S(=O)(=O)NC2C1 (racemic) [Example E21, cis-2-(N-isopropylsulfamoyl)-7-methyl-N-(3,4,5-trifluorophenyl)-2,3,3a,4,10,10a-hexahydro-1H,7H-dipyrrolo[3,4-b:3′,4′-f][1,4,5]oxathiazocine-8-carboxamide 5,5-dioxide]	< 1000 nM	> 50%	–
CCOC(=O)N1CC2NS(=O)(=O)c3cn(C)c(C(=O)Nc4cc(F)c(F)c(F)c4)c3OCC2(C)C1 (single isomer, unassigned) [Example E91, Ethyl 7,10a-dimethyl-8-((3,4,5-trifluorophenyl)carbamoyl)-3a,4,10,10a-tetrahydro-1H,7H-dipyrrolo[3,4-b:3′,4′-f][1,4,5]oxathiazocine-2(3H)-carboxylate 5,5-dioxide (Chiral 3aS,10aS or 3aR,10aR - Stereochemistry unknown)]	–	–	EC50: < 1000 nM
Cc1cc(NC(=O)c2c3c(cn2C)S(=O)(=O)NC2CCN(C(=O)C4(C)CCCO4)CC2CO3)ccc1F (racemic) [Example E127, Cis-N-(4-fluoro-3-methylphenyl)-2-methyl-8-(2-methyltetrahydrofuran-2-carbonyl)-5,5a,6,7,8,9,9a,10-octahydro-2H-pyrido[4,3-f]pyrrolo[3,4-b][1,4,5]oxathiazocine-1-carboxamide 4,4-dioxide]	< 1000 nM	–	–
CC(C)S(=O)(=O)N1CC2COc3c(cn(C)c3C(=O)Nc3cc(F)c(F)c(F)c3)S(=O)(=O)NC2C1 (racemic) [Example E18, cis-2-(isopropylsulfonyl)-7-methyl-N-(3,4,5-trifluorophenyl)-2,3,3a,4,10,10a-hexahydro-1H,7H-dipyrrolo[3,4-b:3′,4′-f][1,4,5]oxathiazocine-8-carboxamide 5,5-dioxide]	< 1000 nM	> 50%	–
CCOC(=O)N1C[C@H]2NS(=O)(=O)c3cn(C)c(C(=O)Nc4cc(F)c(F)c(F)c4)c3OC[C@@]2(C)C1 (relative stereo) [Example E85, cis-ethyl 7,10a-dimethyl-8-((3,4,5-trifluorophenyl)carbamoyl)-3a,4,10,10a-tetrahydro-1H,7H-dipyrrolo[3,4-b:3′,4′-f][1,4,5]oxathiazocine-2(3H)-carboxylate 5,5-dioxide]	–	–	inhibition at 0.05 µM (Hepatitis B virus): > 50%
CCOC(=O)N1C[C@H]2CS(=O)(=O)c3c(cn(C)c3C(=O)Nc3ccc(F)c(C)c3)S(=O)(=O)N[C@H]2C1 [Example E123, Ethyl (3aR,10aR)-8-((4-fluoro-3-methylphenyl)carbamoyl)-7-methyl-3a,4,10,10a-tetrahydro-1H,7H-dipyrrolo[3,4-c:3′,4′-g][1,6,2]dithiazocine-2(3H)-carboxylate 5,5,9,9-tetraoxide]	< 1000 nM	–	–
Cn1cc(C(=O)N2CC3COc4c(cn(C)c4C(=O)Nc4cc(F)c(F)c(F)c4)S(=O)(=O)NC3C2)cn1 (stereo not drawn) [Example E57, cis-7-methyl-2-(1-methyl-1H-pyrazole-4-carbonyl)-N-(3,4,5-trifluorophenyl)-2,3,3a,4,10,10a-hexahydro-1H,7H-dipyrrolo[3,4-b:3′,4′-f][1,4,5]oxathiazocine-8-carboxamide 5,5-dioxide]	–	< 50%	–
